As usually defined, the Ki is the dissociation constant of the complex between target and ligand, obtained from inhibition or displacement. As a reminder, the Km is the concentration of substrate that gives half-maximal velocity.

The target of one assay is T1, recombinant human SK1 (Homo sapiens, UniProt Q9NYA1).
T1 construct: purchased BPS Biosciences
The experiment in a line: SK activity assay, recombinant human SK1 (ADP-Quest; HPLC assay for SKI-II). To be noted: for IC50: sphingosine 10 µM, read-out: IC50 for inhibition of SK1; for IC50 / Ki: ADP-Quest (SKI-II: HPLC assay); for Ki: recombinant human SK1, mean ± SEM of three independent experiments; for mode of inhibition of SK1: substrate competition, Lineweaver-Burk plots. Type of assay: biochemical.

The target of a further assay is T2, recombinant human SK2 (Homo sapiens, UniProt Q9NRA0).
T2 construct: purchased BPS Biosciences
T2 sequence (Q9NRA0 1-654): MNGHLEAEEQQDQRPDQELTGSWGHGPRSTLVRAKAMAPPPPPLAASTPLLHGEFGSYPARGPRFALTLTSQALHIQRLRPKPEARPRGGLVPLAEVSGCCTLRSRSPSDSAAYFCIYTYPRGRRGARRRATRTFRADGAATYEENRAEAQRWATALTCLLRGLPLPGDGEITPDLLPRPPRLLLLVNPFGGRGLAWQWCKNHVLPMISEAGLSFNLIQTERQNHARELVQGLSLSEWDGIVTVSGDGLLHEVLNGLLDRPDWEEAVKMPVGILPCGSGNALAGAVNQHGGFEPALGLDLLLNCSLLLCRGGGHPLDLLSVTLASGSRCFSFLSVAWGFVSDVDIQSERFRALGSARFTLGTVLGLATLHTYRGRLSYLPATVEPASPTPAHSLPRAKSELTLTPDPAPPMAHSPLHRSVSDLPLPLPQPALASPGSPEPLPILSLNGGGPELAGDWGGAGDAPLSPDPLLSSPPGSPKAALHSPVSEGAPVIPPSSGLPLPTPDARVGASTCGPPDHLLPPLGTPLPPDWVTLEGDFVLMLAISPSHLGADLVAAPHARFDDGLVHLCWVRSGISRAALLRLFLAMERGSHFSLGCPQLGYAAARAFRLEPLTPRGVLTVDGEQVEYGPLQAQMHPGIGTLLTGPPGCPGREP
The experiment in a line: SK activity assay, recombinant human SK2 (ADP-Quest; HPLC assay for SKI-II). Type of assay: biochemical. The settings on record: for Ki: recombinant human SK2, mean ± SEM of three independent experiments; for Ki / IC50: ADP-Quest (SKI-II: HPLC assay); for IC50: sphingosine 5 µM, read-out: IC50 for inhibition of SK2; for mode of inhibition of SK2: substrate competition, Lineweaver-Burk plots.

For assay [1], the system named is A498 kidney adenocarcinoma cells. The experiment in a line: Proliferation / cytotoxicity, sulforhodamine assay. Type of assay: cell-based. The settings on record: Homo sapiens, A498, 48 h, read-out: IC50, concentration that reduces cell number by 50%.
Method: (§3) To assess proliferation, cells were treated with the SK inhibitors for the indicated times, and cell numbers were quantified using the sulforhodamine assay [38]. […] For migration assays, 50,000 cells were placed in each cell culture insert (24-well format, 8 µm pore size, BD Biosciences) for 1 hr at room temperature. For invasion assays, matrigel pre-coated inserts were used as previously described [17]. In both cases, inserts were placed into 24-well plates with 0.3 ml of 10%-serum-containing medium having the same concentration of the inhibitor as the insert. Cells were cultured for 4 hr for migration or 24 hr for invasion assays, and the number of cells that migrated to the underside of the inserts was determined by crystal violet staining as previously described [17].
(§4) A ) Cytotoxicity - After treatment with varying concentrations of the SK inhibitors for the indicated time periods, cell numbers were quantified. […] E ) Cell migration and invasion – After SK inhibitor treatment, cells were harvested and migration, through unmodified filters (open bars) and invasion through Matrigel-coated filters (filled bars), were analyzed. […] Data are the mean ± SEM of three independent experiments. *p<0.05, **p<0.01, ***p<0.001 versus control.
The subject of the next assay is SK1 mRNA. Nature of the assay: SK1 mRNA expression by quantitative PCR in A498 cells. In kind it is cell-based. The settings on record: inhibitor at its IC50, 48 hr. As for the experimental part: (§1) To assess proliferation, cells were treated with the SK inhibitors for the indicated times, and cell numbers were quantified using the sulforhodamine assay. Expression levels of SK1 and SK2 were measured by quantitative PCR using GAPDH for normalization, as previously described. […] The cell pellets were subjected to sphingolipid profiling by HPLC-MS by the Lipidomics Core Facility at MUSC as described elsewhere. […] For migration assays, 50,000 cells were placed in each cell culture insert (24-well format, 8 µm pore size, BD Biosciences) for 1 hr at room temperature. For invasion assays, matrigel pre-coated inserts were used as previously described. In both cases, inserts were placed into 24-well plates with 0.3 ml of 10%-serum-containing medium having the same concentration of the inhibitor as the insert. Cells were cultured for 4 hr for migration or 24 hr for invasion assays, and the number of cells that migrated to the underside of the inserts was determined by crystal violet staining as previously described.
(§2) Figure 5 Biochemical and phenotypic effects of SK inhibitors. A ) Cytotoxicity - After treatment with varying concentrations of the SK inhibitors for the indicated time periods, cell numbers were quantified. […] B ) SK expression - After SK inhibitor treatment, mRNAs for SK1 (open bars) and SK2 (filled bars) compared to the vehicle controls (DMSO-treated cells) were calculated. C ) Sphingolipid profiling – After SK inhibitor treatment, cells were harvested and sphingolipids were analyzed by mass spectrometric. The bars represent the ratio of the amount of the indicated lipids in drug treated cells compared with control cells. Abbreviations are: C26-ceramide (C26-Cer), C24-ceramide (C24-Cer), C20-ceramide (C20-Cer), C18-ceramide (C18-Cer), C16-ceramide (C16-Cer), sphingosine (Sph) and dihydrosphingosine (dhSph). D ) Cell cycle distribution – After SK inhibitor treatment, cells were harvested and analyzed by flow cytometry. The bars indicate the percentage of cells in each of the indicated cell cycle phases. E ) Cell migration and invasion – After SK inhibitor treatment, cells were harvested and migration, through unmodified filters (open bars) and invasion through Matrigel-coated filters (filled bars), were analyzed. The bars indicate the percentage of cells that had migrated compared to control cells. Data are the mean ± SEM of three independent experiments. *p<0.05, **p<0.01, ***p<0.001 versus control.

For another assay, the system named is SK2 mRNA. The experiment in a line: SK2 mRNA expression by quantitative PCR in A498 cells. In kind it is cell-based. To be noted: inhibitor at its IC50, 48 hr. As to the method: as §1, §2
The subject of assay [2] is A498 kidney adenocarcinoma cells. Nature of the assay: Sphingolipid profiling by HPLC-MS in A498 cells. In kind it is cell-based. The settings on record: inhibitor at its IC50, 48 hr. As to the method:
as §1, §2

For assay [3] the test system is unchanged. Nature of the assay: Cell cycle distribution by flow cytometry. In kind it is cell-based. To be noted: inhibitor at its IC50, 48 hr. As to the method: as §2
For orientation: Flow cytometry measures light scatter and fluorescence of single cells or particles in a stream.

Assay [4] shares this test system. The experiment in a line: Serum-induced migration and invasion (Matrigel) assays. In kind it is cell-based. To be noted: inhibitor at its IC50, 48 hr pretreatment, compared with SK1-selective CB5468139.
Method: as §3, §4
Assay [5] has as its system STAT3, AKT, ERK, p21, p53, FAK, Beclin1, LC3 in A498 cells. The experiment in a line: Western blot of signaling proteins in A498 cells. Type of assay: cell-based. To be noted: inhibitor at its IC50, 48 hours. As for the experimental part: Following treatment with the SK inhibitors, cells were washed, harvested and lysed, and supernatants were prepared and protein concentrations were determined as previously described. Immunoblotting was carried out with the following primary antibodies (Cell Signaling): AKT, pAKT, ERK1/2, pERK1/2, STAT3, pSTAT3, p21, p53, FAK, pFAK(Y397), Beclin1, LC3, β-actin; and corresponding HRP-conjugated anti-rabbit or anti-mouse secondary antibodies, and immunocomplexes were visualized by the chemiluminescence. Protein expression was quantified by densitometric scanning of the BIOMAX XAR films after normalization to β-actin using the program NIH ImageJ.
Figure 6 Effects of SK inhibitors on signaling proteins. […] Figures are representative blots of at least three independent experiments. B ) Immunoblotting was conducted with the indicated antibodies, and densitometric quantification was done using Image J. Relative expression is represented as the ratio to control after normalization to β-actin.

The test system of assay [6] is panel of 65 protein kinases. The experiment in a line: Kinase profiling, KinaseSeeker assay. To be noted: 2 µM compound; 65 protein kinases tested.
Method: The inhibitory effects of CB5468139 (2 µM) on the indicated protein kinases were tested using KinaseSeeker assay technology (Luceome Biotech. LLC).
Where [7] appears, read: 100 µM ATP, sphingosine 1.25 to 20 µM, initial velocity conditions.

T1 sequence (Q9NYA1 whole entry): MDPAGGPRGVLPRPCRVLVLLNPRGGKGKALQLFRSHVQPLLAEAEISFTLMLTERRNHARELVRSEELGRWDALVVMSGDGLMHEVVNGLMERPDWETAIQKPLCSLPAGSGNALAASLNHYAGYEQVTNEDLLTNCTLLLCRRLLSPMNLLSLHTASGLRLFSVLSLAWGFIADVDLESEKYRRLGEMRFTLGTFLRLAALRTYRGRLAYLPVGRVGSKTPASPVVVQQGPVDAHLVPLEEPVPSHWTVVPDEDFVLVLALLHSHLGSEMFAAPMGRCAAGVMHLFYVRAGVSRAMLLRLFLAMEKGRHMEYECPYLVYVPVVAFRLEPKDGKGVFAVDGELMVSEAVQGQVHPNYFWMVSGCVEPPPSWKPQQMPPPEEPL
Method for recombinant human SK1: (§5) The enzymatic activities of recombinant human SK1 or SK2 (purity ≥74% by coomassie staining for each isozyme, BPS Biosciences) were measured using the ADP-Quest kinase assay kit (DiscoveRX Corporation, Fremont, CA) as previously described [34]. […] The reactions were maintained in initial velocity conditions (<5% of the substrate consumed), and data was fitted to the Michaelis–Menten equation by nonlinear regression (Prism 5 for Windows, GraphPad Software). […] For substrate competition analyses, a series of sphingosine concentrations were used and Lineweaver–Burk plots were constructed to define the mode of inhibition.
Method for recombinant human SK2: as §5

In the case of `O=C(NCc1ccncc1)C12CC3CC(C1)CC(c1ccc(Cl)cc1)(C3)C2` [ABC294640], the IC50 at recombinant human SK1 was above 100 µM. For the same molecule, on recombinant human SK2, the Ki was determined as 9.3 µM, the IC50 was around 40 µM and the “mode of inhibition of SK2” value is given as “sphingosine-competitive inhibitor”. In assay [1], the IC50 came to 40 µM. For the same molecule, the “SK1 mRNA level compared to vehicle control” value in the assay on SK1 mRNA was “approximately 5 fold”. In addition, the “SK2 mRNA level compared to vehicle control” value in the assay with SK2 mRNA is on record as “strongly increased”. In [2], the “decrease of intracellular S1P compared to control” value (“decrease of intracellular S1P” for short) is listed as “over 90%”, the levels of sphingosine result is “dramatically decreased” and the “total ceramides relative to control cells” value was 2 times the level of control cells. In addition, the “effect on cell cycle distribution” value in assay [3] was “distinct G1 arrest with significant decreases in both S and G2/M phases”. For the same molecule, the “serum-induced migration and invasion” value in [4] is “more strongly attenuated”. Further, in assay [5], the ERK2 expression entry is on record as “decreases of ERK2”; the “STAT3 expression and activation (pSTAT3)” value is reported as “largest decrease”; the “expression of autophagy markers beclin1 and LC3” value is “most pronounced increases”; the pAKT level entry is reported as “decreased dramatically”. In addition, in assay [5], the “pFAK(Y397) / FAK” value was “strongly down-regulated”; the “protein levels of p53 and p21” value is “decreased the protein levels of p53 and p21”.

`O=C(NCCc1ccc(O)c(O)c1)C12CC3CC(C1)CC(c1ccc(Cl)cc1)(C3)C2` [ABC294735]: on recombinant human SK1, the inhibition constant Ki was 3100 ± 800 nM, the IC50 was around 10 µM and the “mode of inhibition of SK1” value is listed as “sphingosine-competitive inhibitor”. In addition, at recombinant human SK2, the Ki is 4.2 ± 0.6 µM, the IC50 is around 10 µM and the “mode of inhibition of SK2” value is “sphingosine-competitive inhibitor”. Besides, the IC50 in [1] came to 35 µM. Besides, the “SK1 mRNA level compared to vehicle control” value in the assay with SK1 mRNA was “Neither ABC294735 nor CB5468139 substantially altered the expression”. The “SK2 mRNA level compared to vehicle control” value in the assay with SK2 mRNA is reported as “Neither ABC294735 nor CB5468139 substantially altered the expression”. Besides, the “effect on cell cycle distribution” value in assay [3] is “slightly increase the S phase percentage”.

For the molecule `CC(=O)N(C1=C(Cl)C(=O)c2ccccc2C1=O)C1CCCCC1` [CB5468139], at recombinant human SK1, the Ki stood at 280 ± 150 nM, the IC50 is around 2 µM and the “mode of inhibition of SK1” value was “ATP mimetic”. Also, on recombinant human SK2, the IC50 is above 100 µM. For the same molecule, the IC50 in assay [1] came out at 10 µM. Also, in the assay with SK1 mRNA, the “SK1 mRNA level compared to vehicle control” value is given as “Neither ABC294735 nor CB5468139 substantially altered the expression”. For the same molecule, the “SK2 mRNA level compared to vehicle control” value with SK2 mRNA was “Neither ABC294735 nor CB5468139 substantially altered the expression”. In addition, in assay [2], the “decrease of intracellular S1P” value is “less than 20%” and the “increase of total ceramide levels” value is listed as 30–60%. For the same molecule, in [3], the “effect on cell cycle distribution” value is “slightly increase the S phase percentage”. In assay [5], the “pFAK(Y397) / FAK” value is listed as “strongly down-regulated”; the “protein levels of p53 and p21” value is reported as “reduced the expression of p53, but not p21”. In addition, the “protein kinases with ≥50% inhibition” value in assay [6] is 12 of 65.

Turning to `CCCCCCCCCCCCC/C=C/[C@@H](O)[C@H](CO)N(C)C` [DMS, N,N-dimethyl-D-erythro-sphingosine, reference compound], the “mode of inhibition of SK1” value on recombinant human SK1 is “competitive inhibition with respect to sphingosine”. At recombinant human SK2, the Ki was 14 µM, the IC50 was around 20 µM and the “mode of inhibition of SK2” value is “competitive inhibition with respect to sphingosine”. Besides, the IC50 in assay [1] is 5 µM. Besides, in the assay with SK1 mRNA, the “SK1 mRNA level compared to vehicle control” value is “tripled”. Also, the “SK2 mRNA level compared to vehicle control” value with SK2 mRNA is “only slightly increased”. For the same molecule, the “effect on levels of ceramides” value in [2] is on record as “little impact on the levels of most ceramides”. For the same molecule, in assay [3], the “cells driven into apoptosis” value is “approximately 20%” and the “effect on cell cycle distribution” value is “did not impact the cell cycle”. In addition, in assay [5], the “pFAK(Y397) / FAK” value is reported as “not altered”; the “protein levels of p53 and p21” value is “essentially no affect”.

With `Oc1ccc(Nc2nc(-c3ccc(Cl)cc3)cs2)cc1` [SKI-II, 2-(p-hydroxyanilino)-4-(p-chlorophenyl) thiazole, reference compound], on recombinant human SK2, the Ki amounted to 7.9 ± 0.6 µM and the IC50 worked out at 20 µM. For the same molecule, the IC50 in assay [1] is 20 µM. For the same molecule, the “SK1 mRNA level compared to vehicle control” value in the assay with SK1 mRNA is around 4 fold. In the assay on SK2 mRNA, the “SK2 mRNA level compared to vehicle control” value is around 4 fold. Further, in assay [2], the “decrease of intracellular S1P” value was “over 90%”, the “increase of total ceramide levels” value is on record as 30–60% and the levels of sphingosine result was “dramatically decreased”. The “effect on cell cycle distribution” value in assay [3] is listed as “arrested cells in S phase with a concomitant decrease in the G2/M phase”. In addition, in assay [4], the “serum-induced migration and invasion” value is recorded as “more strongly attenuated”. Besides, in [5], the ERK2 expression result is listed as “decreases of ERK2”; the “pFAK(Y397) / FAK” value is “strongly down-regulated”; the “protein levels of p53 and p21” value was “decreased the protein levels of p53 and p21”.

For the molecule `CCCCCCCCCCCCC/C=C/[C@@H](O)[C@@H](N)CO` [sphingosine], the values for the Km at recombinant human SK1 (setting [7]) and at recombinant human SK2 (setting [7]) were 10 ± 0.45 µM and 5 ± 0.36 µM, respectively.

In the case of diacylglycerol [DAG], the IC50 at recombinant human SK1 and at recombinant human SK2 was above 100 µM in each case.
